Measured values reported in US11951087B2, “Eye wash compositions and methods” (priority 2021, dated 2024).
Where “and” joins values, the source holds several entries; their conditions need not be identical. Equal values may be shown once. Entries after “also recorded” stand apart in the source; their conditions may differ. Read-outs that look alike come from different tables or passages of the source.

Key:
[1] = test system: Pseudomonas aeruginosa; assay type: cell-based; settings: disc diffusion
[2] = test system: P. acnes; assay type: cell-based; settings: disc diffusion
[3] = test system: TGF-β; assay: Local growth hormone levels in normal mouse skin (Example 4); assay type: in vivo, mice; settings: 100 μM topical, normal rodent skin
Protocol: (§1) Mice were shaved but unstrapped and uninfected (normal rodent skin). The test reagents were applied topically in an aqueous solution on the unstripped site at two hours and daily on day 1, 2 and 3. Testing reagents consisted of […] and PCA formulated at one dose, 100 μM in an aqueous solution.

[4] = test system: IGF-1; assay: as above; assay type: in vivo, mice; settings: 100 μM topical, normal rodent skin
Protocol: as §1

[5] = test system: EGF; assay: as above; assay type: in vivo, mice; settings: 100 μM topical, normal rodent skin
Protocol: as §1

[6] = test system: P. aeruginosa (ACTA 27853); assay type: in vivo; settings: for kill of Pseudomonas aeruginosa: both reagents and dose; for dose with most significant decrease of bacteria: day two and four; for bactericidal on stripped skin wound: 48 to 96 hours
[7] = test system: P. aeruginosa (ACTA 9027); assay type: in vivo; settings: day five; for bacterial burden: topical 50, 100, 200 mM in water, none statistically significant; for most effective dose: topical, aqueous
[8] = test system: skin stripped wounds infected with Pseudomonas aeruginosa (ATCC 27853); assay: Histological assessment of tape-stripped, infected mouse skin wound (Example 6); settings: for tissue repair as evidenced by histology: two different doses
[9] = test system: EGF; assay: Growth hormone levels in stripped mouse skin by ELISA (Example 5); assay type: in vivo, mice; settings: 25 mM, infected and treated wound, 48 hours
Protocol: (§2) Four different conditions were used: mice had back skin tape stripped and the stripped site (wound) was infected with P. aeruginosa; mice had back skin stripped and were not infected, mice had taped stripped, infected and treated with PCA, mice were tape stripped, uninfected, and treated with PCA. When used, the PCA test reagent was applied topically in an aqueous solution on the stripped site at two hours and 24 hours.
(§3) The testing reagents consisted of and PCA formulated at one dose, 25 mM, in an aqueous solution. Levels of IGF-1, TGF-β, and EGF levels in the skin tissue at 48 hours were measured by ELISA. There were two control groups: the stripped skin and the stripped skin and infected.

[10] = test system: Candida albicans; assay type: cell-based; settings: disc diffusion
Excerpt: This example describes the method for testing the antimicrobial susceptibility of anthocyanins, anthocyanidins, or metabolites and compounds thereof. The Kirby-Bauer method of disc diffusion was used for testing, following a standard set of procedures recommended by the NCCLS. In this methodology, a set of discs saturated with either testing compounds or a control was placed on inoculated agar plates. The plates were inoculated with organisms including C. difficile, P. acnes, C. prefringens, L. casei, C. albicans, E. coli, ATTC 8739 and ATCC 43895, S. aureus, S. mutans, S. pyogenes, P. aeruginosa and K. pneumonia. The control sample was amoxicillin, an antimicrobial with very effective broad-spectrum antibiotic properties. Samples included delphinidin, pelargonidin, cyanidin CI, 28% cyanindin-3-glucoside (C3G), protocatechuic acid (PCA) and 2,4,6 Trihydroxybenzaldehyde (2,4,6 THBA).
After 18, 24, or 48 hours of incubation, depending upon the microorganism, each plate was examined. The diameters of the zones of complete inhibition were measured, including the diameter of the disc. Zones were measured to the nearest millimeter, using sliding calipers. The size of the zones of inhibition was interpreted by referring to NCCLS standard. […]

[11] = Solubility and hydrophilic-lipophile balance; assay type: physicochemical
[12] = test system: IGF-1; assay: Growth hormone levels in stripped mouse skin by ELISA (Example 5); assay type: in vivo; settings: 25 mM; stripped and infected mice skin; 48 hours
Protocol: as §2, §3

[13] = test system: eye tissues; assay: Irritation of eye tissues
[14] = upon ingestion; cited from earlier work
[15] = 48 and 96 hours, topical, aqueous

CC1(C)S[C@@H]2[C@H](NC(=O)[C@H](N)c3ccc(O)cc3)C(=O)N2[C@H]1C(=O)O [Amoxicillin, amoxicillin, reference compound]
effect on Pseudomonas aeruginosa [1]: no effect

OC[C@H]1O[C@@H](Oc2cc3c(O)cc(O)cc3[o+]c2-c2ccc(O)c(O)c2)[C@H](O)[C@@H](O)[C@@H]1O [C3G, Cyanidin 3-glucoside]
bactericidal against P. acnes [2]: bactericidal | susceptibility of P. acnes [2]: susceptible | local level of TGF-β [3]: decrease | local level of IGF-1 [4]: decrease | local level of EGF [5]: decrease | bacterial burden ([6]; 100 mM, 48 and 96 hours): significantly reduced | bacterial burden ([6]; 200 mM, 48 and 96 hours): significantly reduced | bacterial burden [6, 15]: decreased the bacterial burden | kill of Pseudomonas aeruginosa ([6]; 48 hours): 10,000 fold | dose with most significant decrease of bacteria [6]: 100 mM and 200 mM | bactericidal on stripped skin wound ([6]; topical): bactericidal | bacterial burden [7]: decreased the bacterial burden | most effective dose [7]: 100 mM | dermal layer thickness ([8]; 100 mM, 48 hours): thicker | hair follicles ([8]; 100 mM, 48 hours): single and double cellular lining | inflammation ([8]; 100 mM, 48 hours): inflammation in the dermis and muscular layer and below | surface cellularity ([8]; 100 mM, 48 hours): multiple cellular covering | vascularity ([8]; 100 mM, 48 hours): prominent | dermal layer thickness ([8]; 200 mM, 48 hours): thickened | hair follicles ([8]; 200 mM, 48 hours): single and double cellular lining | inflammation ([8]; 200 mM, 48 hours): inflammation in the dermis and muscular layer | surface cellularity ([8]; 200 mM, 48 hours): multiple cells thick | vascularity ([8]; 200 mM, 48 hours): increased | tissue repair as evidenced by histology [8]: stimulated tissue repair

O=C(O)c1ccc(O)c(O)c1 [PCA, protocatechuic acid]
EGF response level [9]: lowest | bactericidal against P. acnes [2]: bactericidal | susceptibility of P. acnes [2]: susceptible | susceptibility of Candida albicans [10]: susceptible | solubility in a lens care solution [11]: soluble | statistical significance of bacterial burden reduction ([6]; 25 mM, 48 hours): statistically significant | bacterial burden ([6]; 25 mM, both time periods (48 and 96 hours)): reduced the bacterial burden | bacterial burden [6, 15]: decreased the bacterial burden | kill of Pseudomonas aeruginosa ([6]; 48 hours): 10,000 fold | dose with most significant decrease of bacteria [6]: 25 mM | bactericidal on stripped skin wound ([6]; topical): bactericidal | effect on Pseudomonas aeruginosa [1]: some effectiveness | IGF-1 production [12]: optimizes the IGF-1 production | irritation of eye tissues [13]: non-irritating | bacterial burden [7]: decreased the bacterial burden | most effective dose [7]: 50 mM | duration in the body [14]: 8 h | route of elimination [14]: via the urine and feces | time of peak amount [14]: 2 h | collagen between epidermis and dermis ([8]; 25 mM, 48 hours): collagen proliferation; also recorded: collagen layer formation | dermal layer thickness ([8]; 25 mM, 48 hours): thickened | hair follicles ([8]; 25 mM, 48 hours): prominent with multiple cellular lining | inflammation ([8]; 25 mM, 48 hours): abundant inflammation | surface cellularity ([8]; 25 mM, 48 hours): abundant and multiple cell layers | vascularity ([8]; 25 mM, 48 hours): moderate vascularity | dermal layer thickness ([8]; 50 mM, 48 hours): thicker | hair follicles ([8]; 50 mM, 48 hours): double layer of cells | inflammation ([8]; 50 mM, 48 hours): increased in the dermis and below the muscle layer | surface cellularity ([8]; 50 mM, 48 hours): covered with multiple layers of cells | vascularity ([8]; 50 mM, 48 hours): increased vascularity | tissue repair as evidenced by histology [8]: stimulated tissue repair
